The values that follow come from PubChem BioAssay (NCI).

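Cells were grown in 96-well plates and exposed to each compound for 48 hours at five concentrations; endpoints were interpolated linearly between bracketing concentrations, or set to the highest concentration if not reached. The concentration for 50% growth inhibition is given as GI50. TGI is the concentration that stops growth completely.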

Test systems include HT29 colon; K-562 leukemia; KM12 colon; LOX IMVI melanoma; MALME-3M melanoma; RXF 393 renal; SF-295 CNS; TK-10 renal; UACC-257 melanoma; UO-31 renal.
Common to all, as to assay: NCI tumour cell line growth inhibition, 48 h

As to `CCCCC/C=C1\CCC(CN2CCOCC2)C1=O` (centres undefined), the TGI in the experiment on HT29 colon came out at 35.7 µM; in the experiment on K-562 leukemia, 7 µM; with KM12 colon it was 10.7 µM; in the experiment with LOX IMVI melanoma, 10.5 µM; in the experiment on MALME-3M melanoma it was 18.9 µM; with RXF 393 renal, 12.3 µM. In addition, the TGI in the experiment on SF-295 CNS was 32.3 µM; in the experiment with TK-10 renal, 18.9 µM; in the experiment on UACC-257 melanoma, 24.5 µM; in the experiment on UO-31 renal, 25.9 µM.

As to `COc1cc(C(C)c2cc3c(cc2OCCOCCOc2cc4c(cc2C(C)c2cc(OC)c(OC)c(OC)c2)OCO4)OCO3)cc(OC)c1OC` (centres undefined), the GI50 in the experiment with HT29 colon was over 100 µM; in the experiment with K-562 leukemia, over 10 µM; in the experiment on KM12 colon, over 100 µM; with LOX IMVI melanoma, over 100 µM; in the experiment with MALME-3M melanoma it was over 100 µM; in the experiment with RXF 393 renal, over 100 µM. Besides, the GI50 was over 10 µM in the experiment on SF-295 CNS, over 100 µM with TK-10 renal and over 10 µM in the experiment on UO-31 renal. In addition, the TGI with HT29 colon, in the experiment on K-562 leukemia, in the experiment on KM12 colon, in the experiment on LOX IMVI melanoma, in the experiment on MALME-3M melanoma and in the experiment with RXF 393 renal was over 100 µM each time. The TGI is over 100 µM with SF-295 CNS, over 100 µM in the experiment with TK-10 renal, over 10 µM in the experiment on UACC-257 melanoma and over 100 µM in the experiment on UO-31 renal.

Turning to `CO/N=C(\COc1ccc2c(=O)cc(-c3ccccc3)oc2c1)c1ccc(OC)cc1`, the GI50 in the experiment on HT29 colon is over 100 µM; with K-562 leukemia it was over 100 µM; in the experiment on KM12 colon it was 81.4 µM; with LOX IMVI melanoma, over 100 µM; with MALME-3M melanoma, over 100 µM; in the experiment with RXF 393 renal it was over 100 µM. Besides, the GI50 is 21 µM with SF-295 CNS, over 100 µM in the experiment on TK-10 renal, over 100 µM in the experiment on UACC-257 melanoma and over 100 µM in the experiment with UO-31 renal. Further, the TGI with HT29 colon, in the experiment with K-562 leukemia, in the experiment with KM12 colon, in the experiment with LOX IMVI melanoma, in the experiment with MALME-3M melanoma and in the experiment with RXF 393 renal was over 100 µM each time. Further, the TGI with SF-295 CNS is 46.5 µM; with TK-10 renal, over 100 µM; in the experiment on UACC-257 melanoma it was over 100 µM; in the experiment with UO-31 renal it was over 100 µM.

Consider `C=C(C)[C@@H]1CC[C@]2(c3ncc(C)o3)CC[C@]3(C)[C@H](CC[C@@H]4[C@@](C)(CCC#N)[C@H](C(=C)C)CC[C@]43C)[C@@H]12`, for which the GI50 is 3.81 µM in the experiment with HT29 colon; 2.99 µM with K-562 leukemia; 3.89 µM in the experiment on KM12 colon; 1.95 µM with LOX IMVI melanoma; 2.65 µM in the experiment with MALME-3M melanoma; 2.14 µM with RXF 393 renal. Moreover, the GI50 in the experiment on SF-295 CNS was 7.22 µM; in the experiment with TK-10 renal, 14 µM; with UACC-257 melanoma, 9.02 µM; in the experiment on UO-31 renal, 2.4 µM. Also, the TGI is 14.8 µM in the experiment with HT29 colon; over 100 µM with K-562 leukemia; 15.1 µM in the experiment on KM12 colon; 4.14 µM with LOX IMVI melanoma; 9.75 µM with MALME-3M melanoma; 5.12 µM in the experiment on RXF 393 renal. Further, the TGI with SF-295 CNS amounted to 21.2 µM; in the experiment with TK-10 renal, 28.2 µM; in the experiment with UACC-257 melanoma it was 24.4 µM; in the experiment on UO-31 renal it was 14.8 µM.

As to `CCCCn1c(=O)c(/C=C/C(=O)/C=C/c2ccc(O)c(OC)c2)cc2ccc(Cl)cc21`, the GI50 in the experiment with HT29 colon was 0.846 µM; with K-562 leukemia, 2.82 µM; with KM12 colon, 1.89 µM; in the experiment on LOX IMVI melanoma, 1.51 µM; in the experiment with MALME-3M melanoma it was 2.14 µM; in the experiment on RXF 393 renal it was 1.66 µM. Besides, the GI50 with SF-295 CNS was 2.75 µM; with TK-10 renal, 2.51 µM; in the experiment on UACC-257 melanoma, 1.41 µM; in the experiment with UO-31 renal it was 1.59 µM. In addition, the TGI amounted to 2.57 µM in the experiment on HT29 colon; 12.8 µM with K-562 leukemia; 3.66 µM in the experiment with KM12 colon; 2.84 µM with LOX IMVI melanoma; 4.92 µM in the experiment on MALME-3M melanoma; 3.25 µM in the experiment on RXF 393 renal. In addition, the TGI in the experiment on SF-295 CNS is 10.3 µM; in the experiment with TK-10 renal, 5.47 µM; with UACC-257 melanoma, 3.31 µM; in the experiment with UO-31 renal, 2.93 µM.

Consider `COc1ccc(-n2nc(C)c3c(Nc4ccc(NC(=O)Nc5cc(C(F)(F)F)ccc5F)cc4)ncnc32)cc1`, for which the GI50 was 2.31 µM with HT29 colon; 2.99 µM in the experiment on K-562 leukemia; 2.55 µM with KM12 colon; 1.67 µM in the experiment on LOX IMVI melanoma; 1.76 µM in the experiment with MALME-3M melanoma; 1.09 µM in the experiment on RXF 393 renal. The GI50 in the experiment on SF-295 CNS is 2.06 µM; with TK-10 renal, 3.74 µM; in the experiment with UACC-257 melanoma it was 1.99 µM; in the experiment with UO-31 renal, 1.79 µM. Further, the TGI in the experiment with HT29 colon is 5.8 µM; in the experiment on K-562 leukemia, over 100 µM; in the experiment with KM12 colon, 7.32 µM; with LOX IMVI melanoma, 3.1 µM; with MALME-3M melanoma, 4.06 µM; in the experiment on RXF 393 renal, 2.82 µM. The TGI in the experiment on SF-295 CNS was 4.43 µM; with TK-10 renal it was over 100 µM; in the experiment with UACC-257 melanoma it was 4.42 µM; in the experiment on UO-31 renal, 7.04 µM.

`CN1CCN(c2ccc(NC3=C(Cl)C(=O)c4ncccc4C3=O)cc2C(F)(F)F)CC1`: the GI50 with HT29 colon was 2.34 µM; in the experiment with K-562 leukemia, 0.435 µM; with KM12 colon it was 14.4 µM; with LOX IMVI melanoma it was 1.53 µM; with MALME-3M melanoma, 1.46 µM; in the experiment on RXF 393 renal, 1.52 µM. Also, the GI50 with SF-295 CNS was 16.6 µM; in the experiment with TK-10 renal it was 1.92 µM; in the experiment on UACC-257 melanoma, 1.62 µM; with UO-31 renal, 1.5 µM. The TGI is 5.56 µM in the experiment on HT29 colon; over 100 µM in the experiment on K-562 leukemia; 30.1 µM in the experiment with KM12 colon; 2.94 µM in the experiment on LOX IMVI melanoma; 2.83 µM in the experiment on MALME-3M melanoma; 2.91 µM in the experiment with RXF 393 renal. Besides, the TGI in the experiment with SF-295 CNS is 30.4 µM; in the experiment with TK-10 renal it was 3.45 µM; in the experiment on UACC-257 melanoma it was 3.09 µM; with UO-31 renal, 2.82 µM.
